Measurements: ChEMBL document CHEMBL1201862, “PubChem BioAssay data set” (2004)
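96-well plates; 48 h exposure; 5 concentrations. Endpoints by linear interpolation between flanking doses. Not reached: highest tested concentration assigned. At the GI50, growth is halved.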 Activity calls are given as the source filed them. No stated cut-off is given here; in the data, active = GI50 up to about 1.1 µM and inactive = higher.

Columns and labels:
Experiment in all cases: DTP human tumour cell line panel, 48 h
SNB-19 = tested on: SNB-19
SR = tested on: SR
SK-MEL-28 = tested on: SK-MEL-28
HOP-92 = tested on: HOP-92
SF-295 = tested on: SF-295
HT-29 = tested on: HT-29
HCT-116 = tested on: HCT-116
UACC-257 = tested on: UACC-257
RXF 393 = tested on: RXF 393
SK-MEL-5 = tested on: SK-MEL-5
SN12C = tested on: SN12C
Hs-578T = tested on: Hs-578T
LOX IMVI = tested on: LOX IMVI
T47D = tested on: T47D
KM12 = tested on: KM12
SK-MEL-2 = tested on: SK-MEL-2
M14 = tested on: M14
CAKI-1 = tested on: CAKI-1
SK-OV-3 = tested on: SK-OV-3
U-251 = tested on: U-251
COLO 205 = tested on: COLO 205
786-0 = tested on: 786-0
OVCAR-5 = tested on: OVCAR-5
MDA-MB-435 = tested on: MDA-MB-435
DU-145 = tested on: DU-145
SNB-75 = tested on: SNB-75
SF-268 = tested on: SF-268
MOLT-4 = tested on: MOLT-4
A549 = tested on: A549
NCI/ADR-RES = tested on: NCI/ADR-RES
HOP-62 = tested on: HOP-62
NCI-H23 = tested on: NCI-H23
ACHN = tested on: ACHN
HL-60 = tested on: HL-60
HCC 2998 = tested on: HCC 2998
NCI-H226 = tested on: NCI-H226
OVCAR-3 = tested on: OVCAR-3
PC-3 = tested on: PC-3
MCF7 = tested on: MCF7
A498 = tested on: A498
MDA-N = tested on: MDA-N
OVCAR-4 = tested on: OVCAR-4
SF-539 = tested on: SF-539
NCI-H460 = tested on: NCI-H460
Malme-3M = tested on: Malme-3M
HCT-15 = tested on: HCT-15
OVCAR-8 = tested on: OVCAR-8
RPMI-8226 = tested on: RPMI-8226
MDA-MB-231 = tested on: MDA-MB-231
EKVX = tested on: EKVX
BT-549 = tested on: BT-549
K562 = tested on: K562
IGROV-1 = tested on: IGROV-1
SW-620 = tested on: SW-620
UACC-62 = tested on: UACC-62
CCRF-CEM = tested on: CCRF-CEM
NCI-H522 = tested on: NCI-H522
TK-10 = tested on: TK-10
UO-31 = tested on: UO-31

**Q.** For `O=C1Oc2ccccc2C(=O)/C1=C/N1C(=O)/C(=C/c2ccc([N+](=O)[O-])cc2)SC1=S`, which GI50 (SNB-19) is on record?
**A.** 21.9 µM (inactive)

**Q.** What about the GI50 (SR) of the same molecule?
**A.** 31.6 µM (inactive)

**Q.** What about the GI50 (SK-MEL-28) of the same molecule?
**A.** 22.7 µM (inactive)

**Q.** What about the GI50 (HOP-92) of the same molecule?
**A.** 1.08 µM (active)

**Q.** What about the GI50 (SF-295) of the same molecule?
**A.** 17.7 µM (inactive)

**Q.** And the GI50 (HT-29)?
**A.** 32.6 µM (inactive)

**Q.** And the GI50 (HCT-116)?
**A.** 19.3 µM (inactive)

**Q.** And the GI50 (UACC-257)?
**A.** 25.8 µM (inactive)

**Q.** And the GI50 (RXF 393)?
**A.** 25.7 µM (inactive)

**Q.** And the GI50 (SK-MEL-5)?
**A.** 19.7 µM (inactive)

**Q.** And the GI50 (SN12C)?
**A.** 20.4 µM (inactive)

**Q.** And the GI50 (Hs-578T)?
**A.** 6.59 µM (inactive)

**Q.** And the GI50 (LOX IMVI)?
**A.** 29.6 µM (inactive)

**Q.** And the GI50 (T47D)?
**A.** 5.98 µM (inactive)

**Q.** And the GI50 (KM12)?
**A.** 19 µM (inactive)

**Q.** What about the GI50 (SK-MEL-2) of the same molecule?
**A.** 24 µM (inactive)

**Q.** And the GI50 (M14)?
**A.** 22.8 µM (inactive)

**Q.** What about the GI50 (CAKI-1) of the same molecule?
**A.** 24.5 µM (inactive)

**Q.** What about the GI50 (SK-OV-3) of the same molecule?
**A.** 31.5 µM (inactive)

**Q.** What about the GI50 (U-251) of the same molecule?
**A.** 18.9 µM (inactive)

**Q.** And the GI50 (COLO 205)?
**A.** 20.5 µM (inactive)

**Q.** What about the GI50 (786-0) of the same molecule?
**A.** 30.5 µM (inactive)

**Q.** What about the GI50 (OVCAR-5) of the same molecule?
**A.** 34.4 µM (inactive)

**Q.** And the GI50 (MDA-MB-435)?
**A.** 16.4 µM (inactive)

**Q.** What about the GI50 (DU-145) of the same molecule?
**A.** 25.7 µM (inactive)

**Q.** And the GI50 (SNB-75)?
**A.** 16.6 µM (inactive)

**Q.** What about the GI50 (SF-268) of the same molecule?
**A.** 23.2 µM (inactive)

**Q.** And the GI50 (MOLT-4)?
**A.** 29.8 µM (inactive)

**Q.** What about the GI50 (A549) of the same molecule?
**A.** 26.7 µM (inactive)

**Q.** What about the GI50 (NCI/ADR-RES) of the same molecule?
**A.** 23.7 µM (inactive)

**Q.** What about the GI50 (HOP-62) of the same molecule?
**A.** 18.2 µM (inactive)

**Q.** And the GI50 (NCI-H23)?
**A.** 14 µM (inactive)

**Q.** And the GI50 (ACHN)?
**A.** 15.6 µM (inactive)

**Q.** And the GI50 (HL-60)?
**A.** 36.1 µM (inactive)

**Q.** And the GI50 (HCC 2998)?
**A.** 19.1 µM (inactive)

**Q.** What about the GI50 (NCI-H226) of the same molecule?
**A.** 15.1 µM (inactive)

**Q.** And the GI50 (OVCAR-3)?
**A.** 2.71 µM (inactive)

**Q.** And the GI50 (PC-3)?
**A.** 18.2 µM (inactive)

**Q.** What about the GI50 (MCF7) of the same molecule?
**A.** 35.6 µM (inactive)

**Q.** And the GI50 (A498)?
**A.** 7.91 µM (inactive)

**Q.** What about the GI50 (MDA-N) of the same molecule?
**A.** 17.2 µM (inactive)

**Q.** And the GI50 (OVCAR-4)?
**A.** 20.8 µM (inactive)

**Q.** And the GI50 (SF-539)?
**A.** 21.8 µM (inactive)

**Q.** And the GI50 (NCI-H460)?
**A.** 18.5 µM (inactive)

**Q.** And the GI50 (Malme-3M)?
**A.** 36.2 µM (inactive)

**Q.** What about the GI50 (HCT-15) of the same molecule?
**A.** 19.1 µM

**Q.** And the GI50 (OVCAR-8)?
**A.** 21.8 µM (inactive)

**Q.** What about the GI50 (RPMI-8226) of the same molecule?
**A.** 5.65 µM (inactive)

**Q.** What about the GI50 (MDA-MB-231) of the same molecule?
**A.** 24.9 µM (inactive)

**Q.** And the GI50 (EKVX)?
**A.** 54.1 µM (inactive)

**Q.** And the GI50 (BT-549)?
**A.** 7.16 µM (inactive)

**Q.** And the GI50 (K562)?
**A.** 19.4 µM (inactive)

**Q.** And the GI50 (IGROV-1)?
**A.** 32.3 µM (inactive)

**Q.** And the GI50 (SW-620)?
**A.** 21.8 µM (inactive)

**Q.** And the GI50 (UACC-62)?
**A.** 17.9 µM (inactive)

**Q.** What about the GI50 (CCRF-CEM) of the same molecule?
**A.** 34 µM (inactive)

**Q.** What about the GI50 (NCI-H522) of the same molecule?
**A.** 20.7 µM (inactive)

**Q.** Which results are given for `COC(=O)n1c(=O)nc2c3c(ncn21)Oc1c(c(-c2ccccc2)nn1-c1ccccc1)C3c1ccc(Cl)cc1` (stereo not drawn)?
**A.** GI50 (SNB-19): 1.75 µM (inactive); GI50 (SR): 1.82 µM (inactive); GI50 (SK-MEL-28): 1.79 µM (inactive); GI50 (TK-10): 1.79 µM (inactive); GI50 (HOP-92): 1.71 µM (inactive); GI50 (SF-295): 1.67 µM (inactive); GI50 (HT-29): 1.56 µM (inactive); GI50 (HCT-116): 1.01 µM (active); GI50 (UACC-257): 1.89 µM (inactive); GI50 (RXF 393): 1.63 µM (inactive); GI50 (SK-MEL-5): 1.77 µM (inactive); GI50 (SN12C): 1.73 µM (inactive); GI50 (Hs-578T): 1.17 µM (inactive); GI50 (LOX IMVI): 1.48 µM (inactive); GI50 (T47D): 1.71 µM (inactive); GI50 (KM12): 1.37 µM (inactive); GI50 (SK-MEL-2): 1.7 µM (inactive); GI50 (M14): 1.44 µM (inactive); GI50 (CAKI-1): 1.63 µM (inactive); GI50 (SK-OV-3): 3.29 µM (inactive); GI50 (U-251): 1.71 µM (inactive); GI50 (COLO 205): 1.45 µM (inactive); GI50 (786-0): 1.49 µM (inactive); GI50 (OVCAR-5): 1.32 µM (inactive); GI50 (MDA-MB-435): 1.66 µM (inactive); GI50 (DU-145): 1.63 µM (inactive); GI50 (UO-31): 1.68 µM (inactive); GI50 (SNB-75): 2 µM (inactive); GI50 (SF-268): 1.3 µM (inactive); GI50 (A549): 1.77 µM (inactive); GI50 (NCI/ADR-RES): 1.46 µM (inactive); GI50 (HOP-62): 1.72 µM (inactive); GI50 (NCI-H23): 2.03 µM (inactive); GI50 (ACHN): 1.82 µM (inactive); GI50 (HL-60): 1.51 µM (inactive); GI50 (HCC 2998): 1.42 µM (inactive); GI50 (NCI-H226): 1.58 µM (inactive); GI50 (OVCAR-3): 1.42 µM (inactive); GI50 (PC-3): 1.59 µM (inactive); GI50 (MCF7): 1.69 µM (inactive); GI50 (A498): 2.03 µM (inactive); GI50 (MDA-N): 1.66 µM (inactive); GI50 (OVCAR-4): 2.39 µM (inactive); GI50 (SF-539): 1.76 µM (inactive); GI50 (NCI-H460): 1.65 µM (inactive); GI50 (Malme-3M): 1.04 µM (active); GI50 (HCT-15): 1.6 µM; GI50 (OVCAR-8): 1.63 µM (inactive); GI50 (RPMI-8226): 2.1 µM (inactive); GI50 (MDA-MB-231): 1.67 µM (inactive); GI50 (BT-549): 3.87 µM (inactive); GI50 (K562): 1.62 µM (inactive); GI50 (SW-620): 1.69 µM (inactive); GI50 (UACC-62): 1.95 µM (inactive); GI50 (CCRF-CEM): 1.5 µM (inactive); GI50 (NCI-H522): 1.5 µM (inactive)
